From patent US20210308101A1, “METHODS OF TREATING FIBROMYALGIA” (Aptinyx Inc., priority 2019, published 2021)

Test system: subjects with fibromyalgia
Test: Revised Fibromyalgia Impact Questionnaire (FIQR)
Assay type: in vivo, human
Source text: As used herein, “FIQR” is Revised Fibromyalgia Impact Questionnaire. The FIQR is an updated version of the Fibromyalgia Impact Questionnaire which is an assessment of the physical functioning, work status, depression, anxiety, morning tiredness, pain, stiffness, fatigue and wellbeing in fibromyalgia subjects measured over the period of 1 week. The FIQR differs from the FIQ in that it includes questions on memory, tenderness, balance, and environmental sensitivity as well as modified function questions. All 21 FIQR questions are based on an 11-point numerical rating scale/Likert scale ranging from 0 to 10. Lower scores represent a better quality of life. The FIQR is made of the 3 following domains: • Function Domain Score • 9 Questions with Scores Ranging from 0 (No Difficulty) to 10 (Very Difficult) • Sum of those 9 Questions make up the Function Domain Score Ranging from 0 to 90 • Missing Data Imputation Factor: If at least 5 questions were answered, the Function Domain Score was multiplied by 9/(number of questions answered) and rounded off to the nearest whole number. Otherwise, the score was set to missing. • Overall Impact Domain Score • 2 Questions with Scores Ranging from 0 (Never) to 10 (Always) • Sum of those 2 Questions make up the Overall Impact Domain Score Ranging from 0 to 20 • Missing Data Imputation Factor: If 1 question was missing, the Overall Impact Domain Score was multiplied by 2. Otherwise, the score was set to missing. • Symptoms Domain Score • 10 Questions with Scores Ranging from 0 to 10 with Different Categorical Reponses Sum of those 10 Questions make up the Symptoms Domain Score Ranging from 0 to 100 Missing Data Imputation Factor: If at least 5 questions were answered, the Function Domain Score was multiplied by 10/(number of questions answered) and rounded off to the nearest whole number. Otherwise, the score was set to missing.
If all 3 domain scores could be calculated, the Total FIQR Score ranged from 0 to 100 and was calculated based on the normalization domain scores: (Function Domain Score/3)+Overall Impact Domain Score+(Symptoms Domain Score/2). Otherwise, the Total FIQR Score was set to missing. The Function and Symptoms domain scores collected on the CRF applied the normalization factors stated above (Function Domain Score/3 and Symptoms Domain Score/2) in order to calculate the Total FIQR Score on the CRF. As a result, the Function and Symptoms domain scores were derived by the definition stated above in the SAP as opposed to using the collected values on the CRF. The FIQR assessment was collected and analyzed at visits Screening, Day 1, Week 2, Week 4, Week 6, and Follow-up (Week 7). The observed total and domain scores, changes from baseline, and changes from treatment periods were summarized using descriptive statistics. Additionally, the treatment group comparisons were analyzed using the paired ttest and nonparametric Wilcoxon signed-rank test. All FIQR data collected and the calculated total and domain scores at each visit were presented in a subject listing.

[1] = Week 2 (placebo) to Week 4 (NYX-2925 20 mg)
[2] = Week 2 (placebo) to Week 6 (NYX-2925 200 mg)

## CC(C)C(=O)N1CCC[C@]12CN([C@H](C(N)=O)[C@@H](C)O)C2=O [NYX-2925, (2S, 3R)-3-hydroxy-2-((R)-5-isobutyryl-1-oxo-2,5-diazaspiro[3.4]octan-2-yl)butanamide]
NYX-2925 20 mg
  total FIQR score, change from baseline: reductions from baseline
[1]
  FIQR Symptoms Domain score, mean change: −2.1
  FIQR Total score, mean change: −0.5
[2]
  FIQR Function Domain score, mean change: −3.7
  FIQR Overall Impact Domain score, mean change: −2.0
Week 2 (placebo) to Week 6 (NYX-2925 200 mg), p=0.0135
  FIQR Total score, mean change: −6.3
Week 2 (placebo) to Week 6 (NYX-2925 200 mg), p=0.0207
  FIQR Symptoms Domain score, mean change: −6.2
Week six, after four weeks of NYX-2925, scale 0 to 100, n=21
  Total FIQR score, reduction from baseline: 9.6 point
